Laboratory results as given in paper PMC7354492, “Drugs Commonly Applied to Kidney Patients May Compromise Renal Tubular Uremic Toxins Excretion” (Toxins, 2020).
Counter-ions that a name gives are not always drawn. Like-named read-outs stand apart in the source and are kept apart here.

T1: OAT1 (Homo sapiens, UniProt Q4U2R8)
T1 sequence (Q4U2R8 1-563): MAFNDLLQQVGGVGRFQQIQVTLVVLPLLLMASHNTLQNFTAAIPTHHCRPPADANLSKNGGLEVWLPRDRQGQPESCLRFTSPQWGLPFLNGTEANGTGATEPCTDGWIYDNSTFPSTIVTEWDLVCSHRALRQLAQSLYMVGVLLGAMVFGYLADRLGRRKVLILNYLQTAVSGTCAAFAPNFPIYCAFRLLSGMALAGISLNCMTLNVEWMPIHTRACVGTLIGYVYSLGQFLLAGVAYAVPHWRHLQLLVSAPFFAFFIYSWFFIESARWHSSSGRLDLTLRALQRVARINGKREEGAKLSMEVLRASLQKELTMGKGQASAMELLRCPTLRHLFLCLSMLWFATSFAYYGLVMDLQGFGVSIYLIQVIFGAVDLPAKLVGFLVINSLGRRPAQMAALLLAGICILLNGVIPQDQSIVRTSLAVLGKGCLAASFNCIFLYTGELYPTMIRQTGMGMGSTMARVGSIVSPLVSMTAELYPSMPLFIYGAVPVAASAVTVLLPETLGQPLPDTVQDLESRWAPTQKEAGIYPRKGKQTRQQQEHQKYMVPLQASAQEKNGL

B1: OAT1 (Homo sapiens) (protein)
chain: T1 sequence (Q4U2R8 1-563)

Key:
[1] = cited from earlier work
OAT1 [2] = biological target: T1, OAT1; assay: OAT1-mediated fluorescein uptake inhibition assay in ciPTEC-OAT1; settings: for lowest drug concentration with statistically significant decrease (p<0.05) of % fluorescein uptake, with IS: co-incubation with IS; for lowest drug concentration with statistically significant decrease (p<0.05) of % fluorescein uptake, with IS / lowest drug concentration with statistically significant decrease (p<0.05) of % fluorescein uptake, with KA / lowest drug concentration with statistically significant decrease (p<0.05) of % fluorescein uptake, with PCS: reference = toxin alone; for lowest drug concentration with statistically significant decrease (p<0.05) of % fluorescein uptake, with KA: co-incubation with KA; for lowest drug concentration with statistically significant decrease (p<0.05) of % fluorescein uptake, with PCS: co-incubation with PCS; for IC50 at 10 min: human, ciPTEC-OAT1 mature monolayers, pH 7.4, probe fluorescein 1 µM
Procedure: Uptake arrest was performed by washing with ice-cold HBSS (Life Technologies Europe BV, Roskilde, Denmark), and then the cells were lysed by 100 µL 0.1 M NaOH for 10 min, at room temperature and under mild shaking. […] Background values were subtracted and normalized arbitrary fluorescence unit (AFU) data were converted into percentage (%).
In order to replicate the uremic condition present in CKD patients, a specific mixture of eight known anionic PBUTs (Table S1), predominantly derived from endogenous metabolism pathways and food digestion in the gut, was used at concentrations corresponding to those found in patients.
All data are expressed as mean ± standard deviation (SD) of at least three separate experiments. Inhibition data were fitted according to one-site total binding saturation curve using non-linear regression analysis ((inhibitor) vs. response-variable slope) and Vmax values were calculated according to Michaelis-Menten kinetics using non-linear regression analysis. […] All experiments were performed four times.

plasma proteins = settings: cited from earlier work; for Protein Binding (%): ref www.drugbank.ca; for bound to plasma proteins: PBUTs in plasma, ref 68 (IS, PCS), ref 69 (KA)
[3] = Human clearance and half life of tested drugs; type: in vivo
[4] = cited from earlier work; for T1/2 (pharmacologic half life): ref 44 (pravastatin: ref 45)
OAT1 [5] = biological target: T1, OAT1; settings: read-out: IC50 of uremic toxin in ciPTEC-OAT1 system; cited from earlier work
OAT1 [6] = settings: read-out: IC50 (uric acid uptake, OAT1); OAT1-expressing Flp-HEK293 cells; ref Sato et al. [58]; cited from earlier work
[7] = substrate: O=C1OC2(c3ccc(O)cc3Oc3cc(O)ccc32)c2ccccc21; assay: cells, lysate or membranes; settings: pH 7.4; 37.0 °C
[8] = co-incubation with UTox, lowest drug concentration

Molecule | Therapeutic Concentrations ([1]; ref 44 (pravastatin: ref 45)) [µM] | IC50 (OAT1 [2]) [µM] | Protein Binding (%) (plasma proteins) | Renal Clearance (% of Total CL) [3] [%] | Renal CL ([4]; human) [mL/min/kg] | T1/2 (pharmacologic half life) [4] | further results
C[C@H](CS)C(=O)N1CCC[C@H]1C(=O)O [Captopril, captopril] | 0.2 to 5 | 2020 ± 465 |  |  |  |  | 
CN/C(=N/CCSCc1nc[nH]c1C)NC#N [Cimetidine] | 1 to 16 | 888 ± 198 | 20% | 97 | 7.9 | 1.5–4 h | 
C[C@H](N[C@@H](CCc1ccccc1)C(=O)O)C(=O)N1CCC[C@H]1C(=O)O [Enalaprilate, enalaprilate] | 0.04 to 0.4 |  | 50% | 100 | 1.6 | 8–11 h | inhibition of human OAT1 (in words) (OAT1 [2]; captopril and enalaprilate only at high concentrations with no therapeutic relevance): inhibited; Total CL ([4]; human): 1.6 mL/min/kg
NS(=O)(=O)c1cc(C(=O)O)c(NCc2ccco2)cc1Cl [Furosemide, furosemide] | 6 to 30 |  |  |  |  |  | 
O=S(=O)(O)Oc1c[nH]c2ccccc12 [Indoxyl sulfate] |  |  |  |  |  |  | bound to plasma proteins (plasma proteins): 90–95%
O=C(O)[C@H]1O[C@@H](Oc2c[nH]c3ccccc23)[C@H](O)[C@@H](O)[C@@H]1O [Indoxyl-β-D-glucoronide, indoxyl-β-D-glucoronide] |  |  |  |  |  |  | IC50 (OAT1 [5]): 492 ± 68 µM
O=C(O)c1cc(=O)c2ccccc2[nH]1 [Kynurenic acid, kynurenic acid] |  |  |  |  |  |  | bound to plasma proteins (plasma proteins): 70%
NCCCC[C@H](N[C@@H](CCc1ccccc1)C(=O)O)C(=O)N1CCC[C@H]1C(=O)O [Lisinopril, lisinopril] | 0.01 to 0.16 |  | negligible | 100 |  |  | 
CCCCc1nc(Cl)c(CO)n1Cc1ccc(-c2ccccc2-c2nn[nH]n2)cc1 [Losartan, losartan] | 0.5 to 1.5 | 8.6 ± 2.5 | 99% | 11 | 0.9 | 1.5–2 h | lowest drug concentration with statistically significant decrease (p<0.05) of % fluorescein uptake, with IS (OAT1 [2]): 1 µM; lowest drug concentration with statistically significant decrease (p<0.05) of % fluorescein uptake, with KA (OAT1 [2]): 5 µM; lowest drug concentration with statistically significant decrease (p<0.05) of % fluorescein uptake, with PCS (OAT1 [2]): 1 µM; Percentage (%) Fluorescein Uptake at the Lowest Drug Concentration in the presence of UTox (OAT1 [2]; [8]): 23.5 ± 3.5%; IC50 at 10 min (OAT1 [2]): 3.1 ± 0.7 µM; IC50 (OAT1 [6]): 12 µM
CC[C@H](C)C(=O)O[C@H]1C[C@H](O)C=C2C=C[C@H](C)[C@H](CC[C@@H](O)C[C@@H](O)CC(=O)O)[C@H]21 [Pravastatin, pravastatin] | 0.08 to 0.3 | 13.8 ± 8.5 | 60% | 45 | 6.3 | 1–2.5 h | Therapeutic Concentrations ([1]; second value in cell): 0.43 µM; lowest drug concentration with statistically significant decrease (p<0.05) of % fluorescein uptake, with IS (OAT1 [2]): 5 µM; lowest drug concentration with statistically significant decrease (p<0.05) of % fluorescein uptake, with KA (OAT1 [2]): 5 µM; lowest drug concentration with statistically significant decrease (p<0.05) of % fluorescein uptake, with PCS (OAT1 [2]): 1 µM; Percentage (%) Fluorescein Uptake at the Lowest Drug Concentration in the presence of UTox (OAT1 [2]; [8]): 27.8 ± 2.6%; IC50 at 10 min (OAT1 [2]): 23.2 ± 8.3 µM
CCC(C)(C)C(=O)O[C@H]1C[C@@H](C)C=C2C=C[C@H](C)[C@H](CC[C@@H]3C[C@@H](O)CC(=O)O3)[C@H]21 [Simvastatin, simvastatin] |  |  |  | 13 |  | 2 h | 
CCCCC(=O)N(Cc1ccc(-c2ccccc2-c2nnn[nH]2)cc1)[C@H](C(=O)O)C(C)C [Valsartan, valsartan] | 2 to 14 | 11.5 ± 3.5 | 94–97% | 29 | 0.14 | 6–9 h | Percentage (%) Fluorescein Uptake at the Lowest Drug Concentration in the presence of UTox (OAT1 [2]): 24.7 ± 4.5%; IC50 (OAT1 [6]): 16 µM
Cc1ccc(O[C@@H]2O[C@H](C(=O)O)[C@@H](O)[C@H](O)[C@H]2O)cc1 [p-Cresylglucuronide, p-cresylglucuronide] |  |  |  |  |  |  | IC50 (OAT1 [5]): 2650 ± 922 µM
Cc1ccc(OS(=O)(=O)O)cc1 [p-Cresylsulfate, p-cresylsulfate] |  |  |  |  |  |  | bound to plasma proteins (plasma proteins): 90–95%; IC50 (OAT1 [5]): 79 ± 14 µM
B1 |  |  |  |  |  |  | Km [7]: 0.93 ± 0.09 µM
